Columns and labels:
Type in all cases: cell-based
SH-SY5Y cells [1] = experiment: Mitochondrial ROS measurement, MitoSOX; conditions: Aβ 40 μM, 8 h, Aβ alone 1.76 fold
Method: For quantifying mitochondrial ROS levels, SH-SY5Y cells were seeded into 96 well plates and incubated. After 24 h cells were treated with Aβ (20 μM) alone and with two different concentrations of NMIs (M3) (20 and 50 μM) for 8 h and stained with MitoSox Red (5 μM) in PBS for 15 min followed by a wash with PBS thrice. Then quickly fluorescence was measured (λex=510 nm and λem=580 nm) by Spectramax multi-well plate reader in well scan mode (>80 points, with 6 flashes per read). The relative fluorescence was used to assess ROS levels with respect to control. For ROS imaging, cells were seeded onto glass bottom dishes and incubated for 24 h. Cells were treated with Aβ (20 μM) and with NMIs (M3) (50 μM) in low serum media for 8 h. Then the cells were washed with PBS and stained with MitoSOX (5 μM) prepared in PBS and incubated. After 15 min, wash thrice with PBS and imaged in live cell set up in rhodamine channel using 63× oil immersion using Leica DMi8 fluorescence microscope.
Changes in MMP were visualized by treating the cells with Aβ (20 μM) alone and with M3 (50 μM) for 18 h followed by staining with MitoOrange. […] The ability of M3 to modulate Aβ-induced ROS levels in mitochondria was evaluated by the MitoSOX probe. The cells were treated with Aβ (40 μM) alone and with two concentrations of M3 for 8 h followed by treatment with MitoSOX to measure the relative ROS levels. […]

SH-SY5Y cells [2] = experiment: Imaging of mitochondrial structural changes, Mito-TG; conditions: Aβ 20 μM, 18 h, Mito-TG staining
Method: The effect of NMIs (M3) on Aβ induced structural damage to mitochondria was assessed and Mito-TG probe was used for imaging mitochondria. SH-SY5Y cells were seeded onto confocal dishes and incubated for 24 h. Then cells were treated with Aβ (20 μM) alone and with M3 (50 μM) and incubated for […]. Followed by PBS washing, and stained with Mito-TG (250 nM) for 20 min. Cells were washed thrice with dPBS and imaged in live cell set up in rhodamine channel using 63× oil immersion using Leica DMi8 fluorescence microscope.
Aβ-associated functional abnormalities induced structural defects in mitochondria. The effect of M3 to prevent structural damage was assessed by staining the cells with Mito-TG, a mitochondrial probe. The cells were treated with Aβ (20 μM) alone and with M3 for 18 h, followed by Mito-TG staining and fluorescence microscopic imaging to visualize the structural changes. The Aβ treatment deformed mitochondria with fragmented morphology in comparison to the long tubular structure of healthy cells (FIG. 14C). […] Collectively, these structural and functional studies of mitochondria confirmed that M3 is a potential modulator of Aβ-induced toxicity to protect mitochondrial damage.

TNFα = experiment: Western blot of TNFα in C6 microglia; conditions: LPS 500 ng/mL, Aβ 5 μM, compound 10 μM; Aβ alone 2.35 fold
Method: Western blot analysis was performed to analyse the changes in the protein levels from cell lysates. SH-SY5Y and C6 cells were cultured to 80% confluence in T25 flask, trypsinised and seed into 12 well plate. The cells were cultured for 30 h and then treated with LPS (500 ng/mL) in low serum media for 6 h. Then the cells were treated with Aβ42 (5 μM) alone and with NMIs (M3) (10 μM) for 18 h. The cells were harvested by trypsinisation and the protein was extracted in RIPA lysis buffer with protease inhibitor cocktail (1×). Briefly cells were washed with dPBS and lysed in […] of RIPA lysis buffer with gentle shaking in 4° C. for 30 min. Then the cells were centrifuged at 16000 g for 20 min and the supernatant containing protein was collected and quantified by Bradford assay. The protein lysate was subjected to SDS-PAGE (12% resolving gel) and transferred to PVDF membrane. The blot paper was blocked with 5% skim milk powder for 1 h at room temperature and then washed thrice with TBST. The blots were incubated with primary antibodies for 20 h at 4° C. The blots were washed thrice with TBST for 5 min and then incubated with anti-rabbit HRP-conjugated secondary antibodies for 1 h at room temperature. […] All the western blots were quantified by using ImageJ, data was plotted and analysed by GraphPad prism5. […]

SMILES: O=C1c2cccc3c(N(Cc4ccccn4)Cc4ccccn4)ccc(c23)C(=O)N1CCc1ccc(O)c(O)c1 [M3, 6-(bis(pyridin-2-ylmethyl)amino)-2-(3,4-dihydroxyphenethyl)-1H-benzo[de]isoquinoline-1,3(2H)-dione]
- mitochondrial ROS levels compared to control cells (SH-SY5Y cells [1]; compound 20 μM): 1.6 fold
- mitochondrial ROS levels compared to control cells (SH-SY5Y cells [1]; compound 50 μM): 1.25 fold
- mitochondrial structure (SH-SY5Y cells [2]): protected normal long tubular structures
- TNFα level in comparison to control (TNFα): 1.47 fold

Source: patent publication US20250179024A1, “AMYLOID AND ASSOCIATED PATHOLOGY MODULATORS AND METHODS THEREOF” (Jawaharlal Nehru Centre for Advanced Scientific Research, priority 2022, published 2025)
